From BindingDB's records for doi:10.1074/jbc.M109.038984 (Spanish National Cancer Research Center (Cnio), 2009)

Molecular target: Phosphatidylinositol 4,5-bisphosphate 3-kinase catalytic subunit alpha isoform (Homo sapiens, UniProt P42336)
Assay: Kinase Assay
Description: (§1) Kinase assay using PI3K.

Phosphatidylinositol 4,5-bisphosphate 3-kinase catalytic subunit alpha isoform, sequence (P42336 whole entry, canonical isoform): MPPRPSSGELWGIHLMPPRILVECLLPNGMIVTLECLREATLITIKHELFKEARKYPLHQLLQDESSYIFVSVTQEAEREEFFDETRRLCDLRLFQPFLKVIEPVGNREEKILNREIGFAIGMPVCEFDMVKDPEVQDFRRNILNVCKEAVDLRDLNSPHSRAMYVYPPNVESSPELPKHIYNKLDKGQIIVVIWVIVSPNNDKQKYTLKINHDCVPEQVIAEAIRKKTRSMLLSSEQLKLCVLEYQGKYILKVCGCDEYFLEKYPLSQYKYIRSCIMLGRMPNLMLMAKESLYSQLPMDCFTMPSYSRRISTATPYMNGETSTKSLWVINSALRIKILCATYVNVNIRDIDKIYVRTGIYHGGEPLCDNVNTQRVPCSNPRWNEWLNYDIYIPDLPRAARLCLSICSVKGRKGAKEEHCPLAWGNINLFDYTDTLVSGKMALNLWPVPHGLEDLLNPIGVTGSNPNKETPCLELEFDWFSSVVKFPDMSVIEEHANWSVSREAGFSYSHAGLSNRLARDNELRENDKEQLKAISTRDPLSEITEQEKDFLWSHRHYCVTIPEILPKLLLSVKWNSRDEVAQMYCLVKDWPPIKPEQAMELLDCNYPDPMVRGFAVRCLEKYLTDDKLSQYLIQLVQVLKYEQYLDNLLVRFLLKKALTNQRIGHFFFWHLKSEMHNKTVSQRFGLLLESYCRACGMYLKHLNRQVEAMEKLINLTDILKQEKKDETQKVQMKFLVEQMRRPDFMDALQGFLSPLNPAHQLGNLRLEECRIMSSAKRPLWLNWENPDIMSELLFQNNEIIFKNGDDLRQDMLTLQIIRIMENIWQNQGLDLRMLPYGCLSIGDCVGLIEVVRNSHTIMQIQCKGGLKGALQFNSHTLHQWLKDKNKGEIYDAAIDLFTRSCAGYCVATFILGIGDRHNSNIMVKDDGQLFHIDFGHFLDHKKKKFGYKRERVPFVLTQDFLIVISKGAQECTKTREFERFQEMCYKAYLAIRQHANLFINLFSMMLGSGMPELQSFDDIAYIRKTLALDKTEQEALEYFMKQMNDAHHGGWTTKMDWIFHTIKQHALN

Row | IC50 [µM] | Compound
1 | 4.9 | CN1CCN(c2nc(Nc3cccc(Cl)c3)c3cnn(C)c3n2)CC1 [ETP-5935]
2 | 9.2 | COc1cccc(Nc2nc(N3CCN(C)CC3)nc3c2cnn3C)c1 [ETP-7146]
3 | > 50 | Cn1ncc2c(SCc3ccccc3)nc(N3CCOCC3)nc21 [ETP-45654, 3c]
4 | 3.53 | CSc1cccc(-c2nc(N3CCOCC3)c3cnn(C)c3n2)c1 [ETP-45875, 16]
5 | 12.6 | CC1CN(c2nc(Nc3ccccc3)c3cnn(C)c3n2)CC(C)O1 (stereo unspecified) [ETP-6531]
6 | 7 | CC(=O)Nc1cccc(-c2nc(N3CCOCC3)c3cnn(C)c3n2)c1 [ETP-45876, 17]

The remaining lines, values behind:

Row | Compound | IC50 [µM]
7 | CC(C)Oc1nc(N2CCOCC2)nc2c1cnn2C [ETP-45797, 7] | 16.1
8 | COc1cccc(Nc2nc(N3CCN(CCO)CC3)nc3c2cnn3C)c1 [ETP-8162] | 12.6
9 | Cc1cccc(Oc2nc(N3CCOCC3)nc3c2cnn3C)c1 [ETP-45874, 11] | 0.97
10 | Cn1ncc2c(=O)[nH]c(N3CCOCC3)nc21 [ETP-45700, 6] | > 50
11 | COc1cccc(-c2nc(N3CCOCC3)c3cnn(C)c3n2)c1 [ETP-45871, 15] | 5.8
12 | Cn1ncc2c(OCc3ccccc3)nc(N3CCOCC3)nc21 [ETP-45415, 3a] | 35.1
13 | Cn1ncc2c(NCc3ccccc3)nc(N3CCOCC3)nc21 [ETP-45416, 3b] | 36.8
14 | COC(=O)c1cccc(-c2nc(N3CCOCC3)c3cnn(C)c3n2)c1 [ETP-45867, 14] | 0.84
15 | Cn1ncc2c(Oc3ccc(Cl)cc3)nc(N3CCOCC3)nc21 [ETP-45419, 3d] | 5.51
16 | COc1cccc(Nc2nc(N3CCOCC3)nc3c2cnn3C)c1 | 0.4
17 | Cn1ncc2c(-c3cccc(NS(C)(=O)=O)c3)nc(N3CCOCC3)nc21 [ETP-45799, 10] | 1.66
18 | Cn1ncc2c(-c3cccc(O)c3)nc(N3CCOCC3)nc21 [ETP-45798, 9] | 0.114

Molecular target: T1, Phosphatidylinositol 4,5-bisphosphate 3-kinase catalytic subunit delta isoform (Homo sapiens, UniProt O00329)
T1 sequence (O00329 whole entry): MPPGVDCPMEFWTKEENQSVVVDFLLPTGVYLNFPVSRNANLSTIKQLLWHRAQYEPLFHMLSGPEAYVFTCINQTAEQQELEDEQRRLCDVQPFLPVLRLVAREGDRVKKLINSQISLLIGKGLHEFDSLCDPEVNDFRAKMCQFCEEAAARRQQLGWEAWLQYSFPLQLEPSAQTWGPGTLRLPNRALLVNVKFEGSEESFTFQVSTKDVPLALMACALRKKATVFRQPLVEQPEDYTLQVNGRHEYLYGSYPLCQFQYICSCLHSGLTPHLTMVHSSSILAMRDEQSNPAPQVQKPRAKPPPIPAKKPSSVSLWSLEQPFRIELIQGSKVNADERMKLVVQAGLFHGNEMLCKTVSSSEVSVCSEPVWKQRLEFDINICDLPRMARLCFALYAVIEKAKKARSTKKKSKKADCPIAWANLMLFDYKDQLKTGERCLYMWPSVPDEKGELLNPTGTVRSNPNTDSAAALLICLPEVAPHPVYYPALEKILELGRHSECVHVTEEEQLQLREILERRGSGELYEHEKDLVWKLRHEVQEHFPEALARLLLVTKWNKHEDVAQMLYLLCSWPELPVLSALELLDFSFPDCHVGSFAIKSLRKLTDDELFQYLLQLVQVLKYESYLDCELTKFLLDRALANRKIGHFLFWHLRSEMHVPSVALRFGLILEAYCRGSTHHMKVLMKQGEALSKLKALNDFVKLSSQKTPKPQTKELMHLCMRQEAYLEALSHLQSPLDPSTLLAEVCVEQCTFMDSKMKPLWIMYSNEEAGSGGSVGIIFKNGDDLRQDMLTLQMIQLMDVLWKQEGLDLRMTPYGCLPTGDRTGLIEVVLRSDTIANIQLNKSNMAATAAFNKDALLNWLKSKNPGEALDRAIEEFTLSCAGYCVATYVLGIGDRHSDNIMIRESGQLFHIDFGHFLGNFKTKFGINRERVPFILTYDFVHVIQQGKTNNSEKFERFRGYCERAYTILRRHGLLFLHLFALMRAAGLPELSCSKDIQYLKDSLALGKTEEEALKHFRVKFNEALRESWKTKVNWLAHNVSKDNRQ
Assay: Kinase Assay
Description: as §1

Row | IC50 [µM] | Compound
19 | 0.03 | Cn1ncc2c(N3CCOCC3)nc(-c3cccc(O)c3)nc21 [ETP-45658, 13]

Molecular target: Phosphatidylinositol 4,5-bisphosphate 3-kinase catalytic subunit beta isoform (Homo sapiens, UniProt P42338)
Sequence (P42338 whole entry, canonical isoform): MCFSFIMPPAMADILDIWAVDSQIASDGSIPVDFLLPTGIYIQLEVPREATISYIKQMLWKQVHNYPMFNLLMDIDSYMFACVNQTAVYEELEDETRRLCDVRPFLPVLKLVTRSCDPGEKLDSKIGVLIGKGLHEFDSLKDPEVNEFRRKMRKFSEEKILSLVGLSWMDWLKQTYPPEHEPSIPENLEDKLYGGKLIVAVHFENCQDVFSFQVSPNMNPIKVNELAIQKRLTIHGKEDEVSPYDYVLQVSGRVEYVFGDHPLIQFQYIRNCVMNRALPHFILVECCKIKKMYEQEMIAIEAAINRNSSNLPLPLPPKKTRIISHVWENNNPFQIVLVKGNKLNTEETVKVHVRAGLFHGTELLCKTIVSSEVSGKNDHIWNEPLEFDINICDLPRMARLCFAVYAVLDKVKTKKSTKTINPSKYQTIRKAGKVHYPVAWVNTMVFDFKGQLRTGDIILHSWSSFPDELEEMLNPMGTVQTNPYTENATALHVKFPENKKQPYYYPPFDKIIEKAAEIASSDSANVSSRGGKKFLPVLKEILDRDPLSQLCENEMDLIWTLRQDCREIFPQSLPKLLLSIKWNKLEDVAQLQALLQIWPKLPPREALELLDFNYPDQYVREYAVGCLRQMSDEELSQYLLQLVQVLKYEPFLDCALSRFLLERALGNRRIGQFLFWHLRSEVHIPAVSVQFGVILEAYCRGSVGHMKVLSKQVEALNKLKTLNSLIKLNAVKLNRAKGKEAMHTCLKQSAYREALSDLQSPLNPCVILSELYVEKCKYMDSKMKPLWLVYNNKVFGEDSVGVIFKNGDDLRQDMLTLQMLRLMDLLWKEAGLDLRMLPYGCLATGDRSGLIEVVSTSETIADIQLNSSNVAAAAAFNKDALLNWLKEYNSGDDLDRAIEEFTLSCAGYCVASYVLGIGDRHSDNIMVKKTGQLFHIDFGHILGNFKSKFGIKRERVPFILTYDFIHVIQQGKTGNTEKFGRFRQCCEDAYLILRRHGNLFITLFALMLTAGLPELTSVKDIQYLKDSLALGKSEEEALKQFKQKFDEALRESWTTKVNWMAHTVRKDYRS
Assay: Kinase Assay
Description: as §1

Row | IC50 [µM] | Compound
20 | 0.129 | Cn1ncc2c(N3CCOCC3)nc(-c3cccc(O)c3)nc21 [ETP-45658, 13]

Molecular target: Phosphatidylinositol 4,5-bisphosphate 3-kinase catalytic subunit gamma isoform (Homo sapiens, UniProt P48736)
Sequence (P48736 whole entry, canonical isoform): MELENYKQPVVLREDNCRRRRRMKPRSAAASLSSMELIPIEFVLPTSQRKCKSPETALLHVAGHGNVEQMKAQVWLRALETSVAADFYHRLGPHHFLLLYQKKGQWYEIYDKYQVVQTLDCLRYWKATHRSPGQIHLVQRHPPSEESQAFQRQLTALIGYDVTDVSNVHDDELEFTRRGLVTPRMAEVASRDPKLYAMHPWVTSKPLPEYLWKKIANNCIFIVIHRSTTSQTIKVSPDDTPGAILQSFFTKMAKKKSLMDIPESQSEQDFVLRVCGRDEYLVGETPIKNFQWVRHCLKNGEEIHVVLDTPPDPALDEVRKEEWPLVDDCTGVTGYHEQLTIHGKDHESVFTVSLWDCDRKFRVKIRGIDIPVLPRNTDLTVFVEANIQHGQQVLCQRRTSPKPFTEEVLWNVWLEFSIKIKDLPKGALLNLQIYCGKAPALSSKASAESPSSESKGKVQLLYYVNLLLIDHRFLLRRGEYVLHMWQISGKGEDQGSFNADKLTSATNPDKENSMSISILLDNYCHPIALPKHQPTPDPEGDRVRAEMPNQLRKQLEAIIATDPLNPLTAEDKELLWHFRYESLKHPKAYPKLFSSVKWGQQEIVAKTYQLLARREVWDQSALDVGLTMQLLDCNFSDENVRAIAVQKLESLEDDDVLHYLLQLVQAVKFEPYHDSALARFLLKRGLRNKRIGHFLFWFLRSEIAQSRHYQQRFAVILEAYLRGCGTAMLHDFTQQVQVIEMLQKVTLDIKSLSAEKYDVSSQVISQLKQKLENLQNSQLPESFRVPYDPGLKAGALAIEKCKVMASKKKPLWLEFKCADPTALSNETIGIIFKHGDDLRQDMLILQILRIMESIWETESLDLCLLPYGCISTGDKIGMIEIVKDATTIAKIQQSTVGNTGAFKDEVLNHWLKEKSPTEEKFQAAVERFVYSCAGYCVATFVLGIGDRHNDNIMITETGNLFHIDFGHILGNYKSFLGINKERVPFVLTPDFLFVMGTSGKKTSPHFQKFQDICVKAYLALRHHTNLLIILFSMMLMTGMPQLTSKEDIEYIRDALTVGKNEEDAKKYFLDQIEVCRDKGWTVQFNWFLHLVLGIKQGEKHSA
Assay: Kinase Assay
Description: as §1

Row | IC50 [µM] | Compound
21 | 0.717 | Cn1ncc2c(N3CCOCC3)nc(-c3cccc(O)c3)nc21 [ETP-45658, 13]
